Experimental data reported in patent US7166581B1, “Treatment of chemotherapeutic agent and antiviral agent toxicity with acylated pyrimidine nucleosides” (Wellstat Therapeutics Corporation, priority 1987, dated 2007).

Columns and labels:
[1] = tested on: hematopoietic system (AZT toxicity); assay: Oral TAU vs hematopoietic damage by i.p. AZT (Example 9); type: in vivo, female Balb/C mice
Description: AZT (100 mg/kg i.p.) was given three times daily at 9 a.m., 4 p.m., and at 10 p.m. to fifty-six female Balb/C mice weighing approximately 19 grams each. Three times each day, at 9 a.m., 4 p.m., and 10 p.m., animals were treated with either water (control) or TAU at doses of 230, 460, or 920 mg/kg/treatment by oral intubation. Treatment volume was 0.2 ml for the control and TAU 460 groups, 0.1 ml for the TAU 230 group, and 0.4 ml for the TAU 920 group. One additional group of fourteen mice was not given AZT or any treatments (basal).
All of the animals were weighed on the day the experiment began, on day six and on day 13. After weighing the mice on days six and thirteen blood (0.2–0.3 ml) was collected from seven mice in each group by retro-orbital bleeding into EDTA for subsequent differential blood cell counting, including reticulocytes. Mice were then sacrificed by cervical dislocation; their right femurs removed and the contents expelled for cell counting; and their spleens removed and weighed.

[2] = tested on: hematopoietic system (5-FU toxicity); assay: TAU dose-response on hematopoietic recovery after 5-FU (Example 2); type: in vivo, female Balb/C mice; set-up: Marrow: unit not given here; conditions: for HCT (11d): eleven days after 5-FU
Description: Seventy female Balb/C mice weighing approximately twenty grams were each given an i.p. injection of 5-FU (150 mg/kg) at 1:00 p.m. on the initial day of the study. These animals were then divided into five different treatment groups: control (water), and oral TAU at doses of 100, 250, 500, and 1,000 mg/kg/treatment. The test compounds were then given at 3:00, 5:00, 7:30, and 10:00 p.m. on the day of 5-FU administration; at 9:00 a.m., 11:00 a.m., and 1:00, 3:00, 6:00, and 10:00 p.m. the following day; and a final administration at 11:00 a.m. two days following the single 5-FU injection. Each treatment was given orally in a volume of 0.2 ml water (by gavage), except the highest dose of TAU which was administered in 0.4 ml of water.
On days seven and eleven following 5-FU administration, blood (0.2–0.3 ml) was collected from seven mice in each group by retro-orbital bleeding into EDTA for subsequent differential blood cell counting. Mice were sacrificed by cervical dislocation; their right femurs removed and the contents expelled for cell counting; and their spleens removed and weighed.

[3] = Plasma uridine after oral uridine or TAU, with or without dipyridamole (Example 12); type: in vivo, female Balb/C mice
Description: Female Balb/C mice with a body weight of 20 grams were divided into four groups of 8 animals each: [table] Dipyridamole was administered by intraperitoneal injection 30 minutes prior to uridine or TAU Uridine was administered orally by gavage as an aqueous solution in a volume of 0.4 ml. TAU was administered by gavage in an emulsion vehicle (1:1 corn oil/water with 2.5% Tween 80). Two mice from each group were bled from the suborbital plexus at each time point: 0 (Basal uridine levels before TAU or uridine administration), 0.5, 1, 2, and 4 hours after administration of TAU or uridine Plasma samples (0.1 ml) were deproteinized by addition of 0.2 ml methanol followed by centrifugation. Samples were lyophilized and then reconstituted with HPLC buffer (100 mM ammonium acetate, pH 6.5, for subsequent assay of uridine by reverse phase HPLC with UV absorbance detection (254 nm). Data points are the mean of two samples for each time point.

in vivo = assay: in vivo; set-up: species or system mice; conditions: mouse, ip, 300 mg/kg
Description: Plasma uridine levels were determined in mice at various times (15 minutes, 30 minutes, 1 hour, and 2 hours) after administration of the acyl derivatives of uridine utilized in Example 3 for attenuation of toxicity caused by 5-FU. Groups of mice (n=3 per compound per time point) received intraperitoneal injections of uridine (300 mg/kg), triacetyluridine (TAU; 455 mg/kg/treatment), benzoyluridine (BU; 428 mg/kg/treatment), ethoxycarbonyluridine (ECU; 389 mg/kg/treatment), octanoyluridine (OU; 455 mg/kg/treatment), and valeryluridine (VU; 403 mg/kg/treatment). The doses of the acyl derivatives of uridine are the molar equivalent of 300 mg/kg uridine. At the appropriate time points, blood samples (200 μl) were taken from mice via the retro-orbital sinus and immediately centrifuged. 75 μl of the resulting plasma was deproteinized with 2 volumes of methanol followed by centrifugation. The supernatant was lyophilized and reconstituted with 50 mM potassium phosphate buffer, pH 6.0, and analyzed for uridine content by HPLC on a reverse phase (C18) column. Uridine was separated from other plasma components in 50 mM potassium phosphate buffer, pH 6.0, with a methanol gradient (2% to 35% over 15 minutes). Uridine was detected and quantified by UV absorbance at 260 nm.

[4] = day 13, AZT i.p. + oral TAU 460 mg/kg/treatment
[5] = seven days after 5-FU, oral TAU 100 mg/kg/treatment
[6] = seven days after 5-FU, oral TAU 250 mg/kg/treatment
[7] = seven days after 5-FU, oral TAU 500 mg/kg/treatment
[8] = seven days after 5-FU, oral TAU 1000 mg/kg/treatment

CC(=O)OC[C@H]1O[C@@H](n2ccc(=O)[nH]c2=O)[C@H](OC(C)=O)[C@@H]1OC(C)=O [TAU, triacetyluridine]
HCT [1, 4]: 40.83 ± 0.37% | HGB [1, 4]: 14.54 ± G/dL | Lymph. [1, 4]: 6.06 ± 0.38 K/μl | Neutro. [1, 4]: 0.62 ± 0.03 K/μl | Platelets [1, 4]: 863 ± 26 K/μl | RBC [1, 4]: 8.58 ± M/μl | Retic. [1, 4]: 0.162 ± 0.014 M/μl | WBC [1, 4]: 7.0 ± K/μl | bone marrow cellularity ([1]; day six, AZT 100 mg/kg i.p. three times daily + oral TAU 230 mg/kg): 8.89±0.46 | RBC levels ([1]; day six, AZT i.p. + oral TAU 460 mg/kg/treatment): 9.15±0.07 ×10^6 per microliter | WBC counts ([1]; day six, AZT i.p. + oral TAU 920 mg/kg): 8.46±0.63 ×10^3 per microliter | Total neutrophil counts vs control ([2]; day eleven after 5-FU, TAU 250, 500, and 1,000 groups): significantly greater than control values | Spleen weight ([2]; day eleven after 5-FU, TAU 250 group): 104.2 ± 3.5 mg | Red blood cell counts ([2]; day eleven after 5-FU, TAU 500 group): 8.72±0.18 ×10^6 per microliter | Red blood cell counts ([2]; day eleven after 5-FU, TAU 1000 group): 8.63±0.16 ×10^6 per microliter | Total neutrophil counts, fold of controls ([2]; day seven after 5-FU, TAU 1,000 group): approximately three-fold | HCT (11d) ([2]; T100): 36.80 | HCT (11d) ([2]; T250): 37.47 ± .83 | HCT (11d) ([2]; T500): 41.16 ± .88 | HCT (11d) ([2]; T1000): 41.55 ± .77 | Marrow ([2]; seven days after 5-FU 150 mg/kg i.p., oral TAU 100 mg/kg/treatment): 1.77 ± .18 | HCT (7d) ([2]; seven days after 5-FU, T100): 37.77 | HCT (7d) ([2]; seven days after 5-FU, T250): 40.04 ± .38 | HCT (7d) ([2]; seven days after 5-FU, T500): 39.50 ± .61 | HCT (7d) ([2]; seven days after 5-FU, T1000): 40.84 ± .68 | Lym [2, 5]: 2.46 ± .04 K/μl | Neut [2, 5]: .014 ± .008 K/μl | PLT [2, 5]: 440 ± 46 K/μl | RBC [2, 5]: 8.20 ± .07 M/μl | WBC [2, 5]: 2.47 ± .04 K/μl | Lym [2, 6]: 2.71 ± .20 K/μl | Marrow [2, 6]: 2.91 ± .48 | Neut [2, 6]: .027 ± .012 K/μl | PLT [2, 6]: 601 ± 46 K/μl | RBC [2, 6]: 8.51 ± .06 M/μl | WBC [2, 6]: 2.76 ± .20 K/μl | Lym [2, 7]: 3.99 ± .15 K/μl | Marrow [2, 7]: 3.93 ± .39 | Neut [2, 7]: .037 ± .020 K/μl | PLT [2, 7]: 712 ± 42 K/μl | RBC [2, 7]: 8.43 ± .16 M/μl | WBC [2, 7]: 4.06 ± .14 K/μl | Lym [2, 8]: 3.44 ± .23 K/μl | Marrow [2, 8]: 4.42 ± .34 | Neut [2, 8]: .071 ± .027 K/μl | PLT [2, 8]: 715 ± 35 K/μl | RBC [2, 8]: 8.65 ± .15 M/μl | WBC [2, 8]: 3.57 ± .25 K/μl

O=c1ccn([C@@H]2O[C@H](CO)[C@@H](O)[C@H]2O)c(=O)[nH]1 [Urd, uridine]
concentration at 0 h ([3]; female, Balb/C, mouse, plasma, oral, 1000 mg/kg, 0 hr (basal, before TAU or uridine), DPM 25 mg/kg i.p. 30 min before where given, read-out: Plasma uridine levels): 2 µM | concentration at 0.5 h ([3]; female, Balb/C, mouse, plasma, oral, 0.5 hr after uridine 1000 mg/kg p.o. or equimolar TAU 1500 mg/kg p.o., ± DPM 25 mg/kg i.p., read-out: Plasma uridine levels): 4 µM | concentration at 1 h ([3]; female, Balb/C, mouse, plasma, oral, 1 hr after uridine 1000 mg/kg p.o. or equimolar TAU 1500 mg/kg p.o., ± DPM 25 mg/kg i.p., read-out: Plasma uridine levels): 6 µM | concentration at 2 h ([3]; female, Balb/C, mouse, plasma, oral, 2 hr after uridine 1000 mg/kg p.o. or equimolar TAU 1500 mg/kg p.o., ± DPM 25 mg/kg i.p., read-out: Plasma uridine levels): 4 µM | concentration at 4 h ([3]; female, Balb/C, mouse, plasma, oral, 4 hr after uridine 1000 mg/kg p.o. or equimolar TAU 1500 mg/kg p.o., ± DPM 25 mg/kg i.p., read-out: Plasma uridine levels): 2 µM | peak plasma uridine levels ([3]; uridine 1000 mg/kg p.o. or equimolar TAU 1500 mg/kg p.o., ± DPM 25 mg/kg i.p.): 6 µM | concentration at 15 min (in vivo): 911 µM | concentration at 30 min (in vivo): 415 µM | concentration at 1 h (in vivo): 185 µM | concentration at 2 h (in vivo): 5.3 µM
